Results: paper PMC12349723, “Computationally accelerated identification of P-glycoprotein inhibitors” (PLOS One, 2025)

How the values were obtained:
[1] = Resazurin cell viability pre-screen in DU145-TXR cells with or without PTX; type: cell-based; settings: human, mean of two experiments in triplicate, read-out: Viability, 15 µM compound alone
Procedure: Culture of the DU145, DU145-TXR, and HFL1 cell lines was performed as described in [8]. Culture of the A2780 and A2780-ADR cell lines was performed as described in [9]. MTT assays were performed as described in [8] with minor modifications. LC-MS/MS accumulation assays were performed as described in {Nanayakkara, 2018 #173} [9] with some modifications. […] The inhibitor concentration was lowered to 15 µM here, as the goal of the study was to identify compounds that were effective in reversing MDR at low concentrations, and to determine if the expanded virtual-assisted methods improved on our first-draft attempt. Compounds 56–98 were pre-screened using Resazurin cell viability assays: cells were incubated with 15 µM compound with or without 500 nM PTX for 48 hours, after which cell survival was assessed similar to [39]. Data represent the mean of two separate experiments, with n = 3 samples per experiment (n = 6 total) (S4 Table). The top performing compounds from this initial screen were re-tested with MTT viability assays against DU145-TXR cells, as described below.
S4 Table. Pre-screening of compounds 56 – 98 against DU145-TXR cells with resazurin assays. DU145-TXR cells were incubated with 15 µM compound with or without 500nM PTX for 48 hrs; survival was subsequently determined with the Resazurin viability assay ^[37]. […] Percent re-sensitization is defined as the percent change in viability between cells treated with compound and PTX, versus cells treated with PTX alone. In some instances, the assay reported an increase in viability with compound + PTX, and no percent sensitization is reported. ‘Follow-up Testing’ compounds were re-assessed with MTT assays (Figure 1). Compounds 59 and 89 (*, ‘Follow-up Testing’) were used as negative controls in follow-up MTT assays to test for consistency of results, e.g. to confirm that molecules eliminated in Resazurin assays were justifiably eliminated from later screening with MTT assays.

[2] = SWISS-ADME computational analysis of chemical properties; settings: predicted aqueous solubility compared to that observed in the laboratory
Text: Identifying P-gp inhibitors that are not transport substrates remains inherently challenging. To that end, computational tools such as the SWISS-ADME server attempt to use a molecule’s unique chemical and structural characteristics to predict whether it is likely to be a P-gp transport substrate. Our LC-MS/MS assays allowed us to retroactively test the validity of predictions from SWISS-ADME. […] Alternative identifiers for the molecules identified in this study are shown in S7 Table.
S1 Table. Known P-gp Inhibitors and Predicted Chemical Properties. A non-exhaustive list of known P-gp inhibitors and their selected chemical properties ^[64, 65]. Clinical trial outcomes were adapted from ^[10, 11]. Compounds were evaluated using the SWISS-ADME server ^[54]. […] “Predicted P-gp Substrate” - predicted by SWISS-ADME to be a transport substrate of P-gp. “Known P-gp Substrate” – In addition to being P-gp inhibitors, these molecules are: known transport substrates of P-gp, known non-transport substrates of P-gp, unknown whether it is a transport substrate of P-gp ^[66-68]. If the molecule is designated in a specific generation of P-gp inhibitors - First Generation P-gp inhibitors, Second generation P-gp inhibitors, Third generation P-gp inhibitors.

P-gp [3] = biological target: T1, P-gp (Homo sapiens, UniProt P08183); experiment: Top Hit classification from combined in vitro criteria; settings: reverse MDR, do not increase PTX toxicity in chemo-sensitive cancer cells, non-toxic to noncancerous cells, not P-gp substrates
T1 construct: The MDR, P-gp overexpressing DU145-TXR cells were maintained under positive selection pressure; endogenous in cells; host or cells: DU145-TXR (paclitaxel-resistant sub-line of DU145 human prostate cancer cells)
T1 sequence (P08183 whole entry): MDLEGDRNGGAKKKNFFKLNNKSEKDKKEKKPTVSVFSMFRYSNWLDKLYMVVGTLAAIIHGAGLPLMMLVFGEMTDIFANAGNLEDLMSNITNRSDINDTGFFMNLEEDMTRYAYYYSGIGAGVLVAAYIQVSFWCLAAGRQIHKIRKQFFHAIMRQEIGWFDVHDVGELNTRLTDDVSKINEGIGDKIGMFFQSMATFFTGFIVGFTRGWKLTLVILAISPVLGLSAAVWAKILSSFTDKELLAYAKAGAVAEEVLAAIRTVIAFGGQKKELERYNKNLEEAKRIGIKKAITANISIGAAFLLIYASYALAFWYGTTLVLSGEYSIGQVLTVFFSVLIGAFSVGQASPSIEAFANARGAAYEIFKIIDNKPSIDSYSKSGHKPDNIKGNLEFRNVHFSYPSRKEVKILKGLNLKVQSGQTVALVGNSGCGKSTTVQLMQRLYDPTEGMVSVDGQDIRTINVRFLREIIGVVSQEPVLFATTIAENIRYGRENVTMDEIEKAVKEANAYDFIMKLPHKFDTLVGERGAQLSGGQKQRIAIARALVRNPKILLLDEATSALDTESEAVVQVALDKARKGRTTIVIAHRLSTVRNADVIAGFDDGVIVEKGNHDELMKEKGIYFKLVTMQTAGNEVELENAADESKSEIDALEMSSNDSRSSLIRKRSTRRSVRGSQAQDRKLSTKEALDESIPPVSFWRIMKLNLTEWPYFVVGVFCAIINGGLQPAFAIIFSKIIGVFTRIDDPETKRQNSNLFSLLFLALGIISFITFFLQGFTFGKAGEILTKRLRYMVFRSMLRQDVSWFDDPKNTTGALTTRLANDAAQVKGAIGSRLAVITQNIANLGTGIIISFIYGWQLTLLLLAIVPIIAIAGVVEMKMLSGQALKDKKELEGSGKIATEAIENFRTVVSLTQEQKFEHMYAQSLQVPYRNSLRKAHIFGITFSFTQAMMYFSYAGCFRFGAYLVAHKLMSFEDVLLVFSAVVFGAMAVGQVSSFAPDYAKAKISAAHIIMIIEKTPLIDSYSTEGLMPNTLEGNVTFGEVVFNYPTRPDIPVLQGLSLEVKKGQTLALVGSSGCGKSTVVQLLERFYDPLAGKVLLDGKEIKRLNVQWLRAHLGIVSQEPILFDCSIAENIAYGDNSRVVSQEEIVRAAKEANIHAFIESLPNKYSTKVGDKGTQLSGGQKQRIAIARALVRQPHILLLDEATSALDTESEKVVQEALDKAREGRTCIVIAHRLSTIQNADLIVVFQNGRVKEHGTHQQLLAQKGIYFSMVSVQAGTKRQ

P-gp [4] = tested on: P-gp; design: method as in earlier work; settings: ref [66-68]; cited from earlier work
[5] = tested on: HFL1 (human lung fibroblast) cell line; experiment: MTT viability assay, inherent toxicity in non-cancerous HFL1 cells; type: cell-based; settings: HFL1 cells, compound alone, mean of 8 samples
Procedure: The chemotherapeutic sensitive DU145 human prostate cancer cells and the multidrug resistant sub-line, DU145-TXR, were generous gifts from Dr. Evan Keller (University of Michigan, Ann Arbor, MI). The MDR, P-gp overexpressing DU145-TXR cells were maintained under positive selection pressure by supplementing complete medium with 10 nM paclitaxel (Acros Organics, NJ). […] The MDR, P-gp overexpressing A2780-ADR cell line was maintained under positive selection pressure by supplementing complete medium with 100 nM doxorubicin (Fisher Scientific, NJ). The non-cancerous HFL1 (human lung fibroblast) cell line cell line was a generous gift from Dr. Robert Harrod (Southern Methodist University, Dallas, TX) and was maintained in complete F12K media consisting of F12K with 10% fetal bovine serum, 100 U/mL penicillin, and 100 µg/mL streptomycin (Gibco). Flasks and 96 well plates that were used with the non-cancerous line HFL1 were pre-treated with 0.1 mg/ml Collagen Type 1 (Gibco) and rinsed with PBS (Fisher).
MTT assays measure the reduction of yellow, water soluble 3-(4,5-dimethylthiazol-2-yl)-2,5-diphenyltetrazolium bromide (MTT) to blue, insoluble formazan crystals by cellular reductase processes in living cells. Cells were trypsinized from monolayers and seeded in complete medium in 96 well plates. Cancerous cell lines (DU145, DU145-TXR, A2780, A2780-ADR) were seeded at 3,000 cells per well in complete RPMI medium. The non-cancerous HFL1 line was seeded at 4,000 cells per well in complete F12K medium, in collagen-treated plates (Collagen Type 1, Gibco). Cells were incubated with experimental compounds for 48 hours at 37 °C and 5% CO2 in a humidified incubator. At 48 hours, MTT was added (20 µL/well of 5 mg/mL MTT in PBS) to each well. After incubation for 4 hours, the media was removed, and the formazan crystals were dissolved in 100 µL DMSO per well. Plates containing the semi-adherent A2780 or A2780-ADR lines were spun at 1400 rpm for 3 minutes prior to aspiration of media, and the addition of DMSO. Plates were shaken for 10 minutes at 500 rpm on an Orbital shaker (LabDoctor from MidSci, St Louis, MO). The absorbance was measured at 570 nm using a Bio-Tek Cytation 5 (Bio-Tek, Winooski, VT). The measured absorbance value was correlated with the number of metabolically active cells in that well, corrected for absorbance of media. The percent of cell viability (termed ‘survival’ here) was calculated as a percentage of survival of the control condition, which refers to vehicle-treated (DMSO as vehicle) cells, or vehicle-and-chemotherapeutic-treated cells, if testing a compound’s ability to re-sensitize cells to a chemotherapeutic. Percent survival was calculated using the following equation:
% Survival=100 × absorbance of experimental cells/mean absorbance of control treated cells
For DU145-TXR, DU145, HFL1 and A2780 cells – data are the mean ± one standard deviation, 8 samples per compound, from at least two independent trials per compound. […] For A2780-ADR cells, data are the mean ± one standard deviation with 12 samples per compound, from at least two independent trials per compound.
If a P-gp inhibitor is intrinsically toxic to non-cancerous cells, it is more likely to be participating in undesirable off-target interactions. The top compounds from the screens shown above were screened for inherent toxicity using the non-cancerous HFL1 (human lung fibroblast) cell line. HFL1 cells were incubated with 15 µM compound for 48 hours, after which cell viability was assessed using MTT cell viability assays. A 20% reduction in cell viability (compared to DMSO-treated cells) was considered the maximum acceptable toxicity (see dotted line). The chemotherapeutic daunorubicin was included as a positive control for toxicity.
The top compounds from previous screens were tested against the non-cancerous HFL1 cell line.

P-gp [6] = biological target: T1, P-gp; experiment: LC-MS/MS intracellular accumulation assay with or without tariquidar (P-gp transport substrate test) in DU145-TXR cells; type: in vitro ADME
Procedure: DU145-TXR cells were seeded at 350,000 cells per well in 6-well plates in complete RPMI medium. […] A full sample of DAU was also prepared for quantitative analysis. […] Media was removed with a glass vacuum aspirator. Cells were re-suspended and washed in 2mL of ice-cold Hank’s Balanced Salt Solution (HBSS, Gibco), and spun again at 2400 rpm. Cell lysates were diluted in 600 µL of ice-cold HBSS, flash-frozen in liquid nitrogen, and stored at −80 °C until analysis. LC-MS/MS intracellular accumulation assays were performed in collaboration with the Pharmacology Core at the University of Texas Southwestern Medical Center (UTSW). […] This method allowed us to quantify the change – if any – in the relative amount of compound present in the samples when TQR was added. An increase in the relative amount of compound indicates enhanced intracellular retention that compound. […] The “Internal Standard” (IS) is a known substance added in a constant amount to each sample. The “Peak Area”, expressed as “counts”, describes the number of MS/MS spectra from the experimental compound and serves as a measure of its relative abundance. […] These values allow a comparison of the relative abundance of compound between the “- TQR” and “+ TQR” samples, and to test for statistically significant differences. LC-MS/MS quantification was performed as follows. Cell lysate was aliquoted into Eppendorf tubes. In contrast to [9], blank cell lysates were not spiked with varying concentrations of each compound to create a standard curve, since compound amounts were normalized to abundance of the internal standard. […] The supernatant was then transferred to an HPCL vial, and subsequently analyzed using LC-MS/MS using a Sciex 4000QTRAP mass spectrometer coupled to a Shimadzu Prominence LC. […] The column flow rate was 1.5 ml/min using an Agilent C18 XDB, 5 micron packing 50 × 4.6 mm column. […] A BSA standard curve was then prepared in water and mixed using the same ratio. […] The ratio of Analyte to Internal Standard was normalized to the lysate content for each individual sample. […] Statistical significance was determined using a Student’s T Test in GraphPad Prism. We aimed to identify P-gp inhibitors that are not transport substrates of the pump itself. […] To test these predictions in vitro, liquid chromatography with tandem mass spectrometry (LC-MS/MS) was used to assess the intracellular accumulation of experimental compounds as described in [9]. […] The relative intracellular accumulation of each experimental compound was then assessed using LC-MS/MS. […] The P-gp substrate and chemotherapeutic daunorubicin (DAU) was used as a positive control for P-gp-mediated transport.

DU145-TXR cells = settings: cited from earlier work
DU145 cells = tested on: DU145 cells; design: method as in PMID 26516582; settings: ref [8]; cited from earlier work
[7] = DU145-TXR, 5 µM compound, 2.5 h, with 500 nM tariquidar, mean ± SD, triplicate
[8] = DU145-TXR, 5 µM compound, 2.5 h, without tariquidar, mean ± SD, triplicate
[9] = significant difference = likely P-gp transport substrate

In the case of `Cc1cccc(C2CC(=O)c3cnn(-c4nc5ccccc5[nH]4)c3C2)c1` (stereo not shown) [Compound 79, Cc1cccc(c1)C1Cc2c(cnn2-c2nc3ccccc3[nH]2)C(=O)C1], the viability at 48 h, 15 µM [1] was 89.9%, the “Correct Water Solubility Prediction?” value [2] was “Yes” and the “Top Hit” value (P-gp [3]) was “No”.

In the case of `O[C@@H](COc1cccc2ncccc12)CN1CCN([C@@H]2c3ccccc3[C@@H]3[C@H](c4ccccc42)C3(F)F)CC1` [Zosuquidar], the “P-gp Substrate? (known transport substrate of P-gp)” value (“P-gp Substrate?” below) (P-gp [4]) is given as “Yes”.

In the case of `COC(=O)[C@H]1[C@H]2C[C@@H]3c4[nH]c5cc(OC)ccc5c4CCN3C[C@H]2C[C@@H](OC(=O)c2cc(OC)c(OC)c(OC)c2)[C@@H]1OC` [Reserpine], the “P-gp Substrate?” value (P-gp [4]) is listed as “No”.

For `COc1cccc2c1C(=O)c1c(O)c3c(c(O)c1C2=O)C[C@@](O)(C(C)=O)C[C@@H]3O[C@H]1C[C@H](N)[C@H](O)[C@H](C)O1` [Daunorubicin, reference compound], the “Mean % Survival” value [5] was 18.1%, the “Intracellular accumulation (normalized ratio of compound to internal standard), Trial 1, + TQR” value (P-gp [6]; [7]) was 0.216 ± 0.002 and the “Intracellular accumulation (normalized ratio of compound to internal standard), Trial 2, + TQR” value (P-gp [6]; [7]) was 0.232 ± 0.016. The “Intracellular accumulation (normalized ratio of compound to internal standard), Trial 1, - TQR” value (P-gp [6]; [8]) was 0.014 ± 0.001, the “Intracellular accumulation (normalized ratio of compound to internal standard), Trial 2, - TQR” value (P-gp [6]; [8]) was 0.017 ± 0.001 and the “P (- TQR vs + TQR), Trial 2” value (P-gp [6]; Student's T test of the mean) was 2x10^-5. For the same compound, the “P (- TQR vs + TQR), Trial 1” value (P-gp [6]; Student's T test of the mean, listed as DAU) was < 1x10^-6, the “Significance of accumulation with tariquidar, Trial 1” value (P-gp [6]; [9]) was “**** (P < 0.0001 = ****)” and the “Significance of accumulation with tariquidar, Trial 2” value (P-gp [6]; [9]) was “**** (P < 0.0001 = ****)”.

In the case of `C/C=C/C[C@@H](C)C(=O)[C@H]1C(=O)N[C@@H](C(C)C)C(=O)N(C)CC(=O)N(C)[C@@H](CC(C)C)C(=O)N[C@@H](C(C)C)C(=O)N(C)[C@@H](CC(C)C)C(=O)N[C@@H](C)C(=O)N[C@H](C)C(=O)N(C)[C@@H](CC(C)C)C(=O)N(C)[C@@H](CC(C)C)C(=O)N(C)[C@@H](C(C)C)C(=O)N1C` [Valspodar], the “P-gp Substrate?” value (P-gp [4]) is listed as “No”.

In the case of `CC(=O)O[C@H]1C(=O)[C@@]2(C)[C@H]([C@H](OC(=O)c3ccccc3)[C@]3(O)C[C@H](OC(=O)[C@H](O)[C@@H](NC(=O)c4ccccc4)c4ccccc4)C(C)=C1C3(C)C)[C@]1(OC(C)=O)CO[C@@H]1C[C@@H]2O` [Paclitaxel, paclitaxel], the “Survival of DU145-TXR cells at 500 nmol/L PTX” value (DU145-TXR cells; 500 nmol/L PTX, ref [8]) is given as “greater than 85%”, the “Increase in the IC50 of PTX in DU145-TXR relative to DU145 cells” value (DU145-TXR cells; DU145-TXR vs DU145 parental cells, ref [38]) is given as 34 fold and the “Survival of DU145 parental cells at 500 nmol/L PTX” value (DU145 cells) is given as “less than 10%”.

For `C=C[C@H]1C[N@@]2CC[C@H]1C[C@@H]2[C@@H](O)c1ccnc2ccc(OC)cc12` [Quinidine], the “P-gp Substrate?” value (P-gp [4]) is given as “Yes”.
